In the supplement of paper PMC11061612:

Legend:
Assay in all cases: combination Emax (second highest fraction inhibited in the dose matrix, 72 h); higher = more inhibition; extreme values may be limits of the assay
[1] = system: SK-N-DZ (Neuroblastoma)
Summary of the method: (§1)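 After 24 hours at 37°C and 5% CO2 in 1536-well plates, cells in DMEM/F12 or RPMI plus 10% FBS received two-drug dose matrices for 72 hours. Viability came from CellTiter-Glo 2.0 luminescence and was scaled as inhibition, anchored at 0 by vehicle wells and at 1 by blank wells. Combination Emax is taken as the second-highest inhibition in the matrix, and Bliss excess as the observed combination effect less EA + EB − EA·EB, with EA and EB the single-agent effects.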

[2] = system: TOV-21G (Ovarian Carcinoma)
Summary of the method: as §1

[3] = system: Daudi (Burkitt's Lymphoma)
Summary of the method: as §1

[4] = system: NCI-H2023 (Non-Small Cell Lung Carcinoma)
Summary of the method: as §1

[5] = system: SK-MEL-24 (Melanoma)
Summary of the method: as §1

[6] = system: NCI-H2452 (Mesothelioma)
Summary of the method: as §1

[7] = system: L-363 (Plasma Cell Myeloma)
Summary of the method: as §1

[8] = system: TK (B-Cell Non-Hodgkin's Lymphoma)
Summary of the method: as §1

[9] = system: NCI-H1944 (Lung Adenocarcinoma)
Summary of the method: as §1

[10] = system: JJN-3 (Plasma Cell Myeloma)
Summary of the method: as §1

[11] = system: KNS-62 (Squamous Cell Lung Carcinoma)
Summary of the method: as §1

[12] = system: NTERA-2-cl-D1 (Other Solid Carcinomas)
Summary of the method: as §1

[13] = system: CAL-85-1 (Breast Carcinoma)
Summary of the method: as §1

[14] = system: NCI-H835 (Other Solid Carcinomas)
Summary of the method: as §1

[15] = system: IGROV-1 (Ovarian Carcinoma)
Summary of the method: as §1

[16] = system: SCC90 (Head and Neck Carcinoma)
Summary of the method: as §1

[17] = system: RS4-11 (B-Lymphoblastic Leukemia)
Summary of the method: as §1

[18] = system: DK-MG (Glioblastoma)
Summary of the method: as §1

[19] = system: OVKATE (Ovarian Carcinoma)
Summary of the method: as §1

[20] = system: JURL-MK1 (Chronic Myelogenous Leukemia)
Summary of the method: as §1

| Structure (SMILES) | combination Emax [1] | combination Emax [2] | combination Emax [3] | combination Emax [4] | combination Emax [5] | combination Emax [6] | combination Emax [7] | combination Emax [8] | combination Emax [9] | combination Emax [10] | combination Emax [11] | combination Emax [12] | combination Emax [13] | combination Emax [14] | combination Emax [15] | combination Emax [16] | combination Emax [17] | combination Emax [18] | combination Emax [19] | combination Emax [20] |
| --- | --- | --- | --- | --- | --- | --- | --- | --- | --- | --- | --- | --- | --- | --- | --- | --- | --- | --- | --- | --- |
| CC(=O)c1c(C)c2cnc(Nc3ccc(N4CCNCC4)cn3)nc2n(C2CCCC2)c1=O [Palbociclib] + Cn1cnc2c(F)c(Nc3ccc(Br)cc3Cl)c(C(=O)NOCCO)cc21 [Selumetinib] (first compound max 10 µM, 7x7, partner max 10 µM) | 0.61 | 0.519 | 0.415 | 0.209 | 0.654 | 0.331 | 0.301 | 0.196 | 0.534 | 0.168 | 0.552 | 0.249 | 0.387 | 0.133 | 0.782 | 0.726 | 0.488 | 0.435 | 0.219 | 1 |
| COc1cccc(OCCCN)c1-c1cc(Nc2cnc(C#N)cn2)n[nH]1 [Prexasertib] + Cc1cc2ncnn2cc1Nc1ncc2c(n1)n(C1CCOCC1)c(=O)n2C [AZD7648] (first compound max 1 µM, 7x7, partner max 10 µM) | 1 | 0.617 | 0.947 | 0.801 | 0.61 | 0.714 | 0.985 | 0.872 | 0.806 | 0.966 | 0.601 | 0.345 | 0.477 | 0.36 | 0.76 | 0.755 | 1 | 0.312 | 0.294 | 1 |
| COc1nnc2ccc(N3CCC(c4ccc(OCCN5CCN(C)C(=O)[C@H]5C)cc4)CC3)nn12 [AZD5153] + CC1(C)CCC(CN2CCN(c3ccc(C(=O)NS(=O)(=O)c4ccc(NCC5CCOCC5)c([N+](=O)[O-])c4)c(Oc4cnc5[nH]ccc5c4)c3)CC2)=C(c2ccc(Cl)cc2)C1 [Venetoclax] (first compound max 1 µM, 7x7, partner max 1 µM) | 0.694 | 0.623 | 0.58 | 0.378 | 0.474 | 0.411 | 0.528 | 0.994 | 0.566 | 0.892 | 0.519 | 0.654 | 0.674 | 0.372 | 0.669 | 0.533 | 1 | 0.539 | 0.35 | 0.873 |
| CC(=O)c1c(C)c2cnc(Nc3ccc(N4CCNCC4)cn3)nc2n(C2CCCC2)c1=O [Palbociclib] + Cc1c2c(nn1C)CSCc1cc(n(C)n1)CSc1cc(c3ccccc3c1)OCCCc1c(C(=O)O)n(C)c3c-2c(Cl)ccc13 [AZD5991] (first compound max 10 µM, 7x7, partner max 1 µM) | 0.55 | 0.488 | 0.571 | 0.234 | 0.283 | 0.336 | 0.994 | 0.266 | 0.633 | 0.992 | 0.329 | 0.509 | 0.234 | 0.416 | 0.815 | 0.965 | 0.841 | 0.366 | 0.208 | 1 |
| NC1(C(=O)N[C@@H](CCO)c2ccc(Cl)cc2)CCN(c2ncnc3[nH]ccc23)CC1 [Capivasertib] + CCN(CCO)CCCOc1ccc2c(Nc3cc(CC(=O)Nc4cccc(F)c4)[nH]n3)ncnc2c1 [AZD2811] (first compound max 10 µM, 7x7, partner max 1 µM) | 0.619 | 0.794 | 0.806 | 0.412 | 0.626 | 0.403 | 0.549 | 0.231 | 0.628 | 0.376 | 0.561 | 0.481 | 0.203 | 0.535 | 0.76 | 0.867 | 0.96 | 0.484 | 0.309 | 0.596 |
| NC1(C(=O)N[C@@H](CCO)c2ccc(Cl)cc2)CCN(c2ncnc3[nH]ccc23)CC1 [Capivasertib] + Cn1cnc2c(F)c(Nc3ccc(Br)cc3Cl)c(C(=O)NOCCO)cc21 [Selumetinib] (first compound max 10 µM, 7x7, partner max 10 µM) | 0.405 | 0.876 | 0.212 | 0.369 | 0.856 | 0.344 | 0.605 | 0.0522 | 0.738 | 0.358 | 0.914 | 0.321 | 0.411 | 0.41 | 0.882 | 0.992 | 0.468 | 0.621 | 0.385 | 1 |
| Cn1cnc2c(F)c(Nc3ccc(Br)cc3Cl)c(C(=O)NOCCO)cc21 [Selumetinib] + CC(C)n1c(=O)n(C)c2cnc3cc(F)c(-c4ccc(OCCCN5CCCCC5)nc4)cc3c21 [AZD1390] (first compound max 10 µM, 7x7, partner max 0.3 µM) | 0.239 | 0.259 | 0.211 | 0.161 | 0.495 | 0.262 | 0.017 | 0.177 | 0.285 | 0.281 | 0.439 | 0.235 | 0.44 | 0.0782 | 0.618 | 0.774 | 0.0431 | 0.323 | 0.179 | 0.973 |
